From patent US8901337B2, “Metal complexes having dual histone deacetylase inhibitory and DNA-binding activity” (Royal College of Surgeons in Ireland, priority 2009, dated 2014)
Where two headings read alike, the source gives them in different places.

Tests used:
[1] = test system: non-tumorigenic human dermal fibroblast cell line (NHDF); experiment: MTS in vitro cytotoxicity, NHDF; type: cell-based
Description: In addition Normal Neonatal Human Dermal Fibroblast, NHDF, cells were cultured in Fibroblast Basal Medium (FBM®, Clonetics, Walkersville, USA) supplemented with hFGF-B, insulin, 5% FBS and gentamicin/amphotericin-B (FGM®-2 SingleQuots, Clonetics, Walkersville, USA).
(§1) All cells were kept in a humidified atmosphere with 5% CO2 at 37° C.; cells from confluent monolayers were removed from flasks by trypsin/EDTA solution and their viability determined by the trypan blue exclusion test.
(§2) Cell growth was determined by the [3-(4,5-dimethylthiazol-2-yl)-5-(3-carboxymethoxyphenyl)-2-(4-sulfophenyl)-2H-tetrazolium, inner salt, (MTS test, Promega, Southampton, UK), a colorimetric assay based on the ability of the viable cells to reduce a soluble yellow tetrazolium salt to blue formazan. 10,000 ovarian cancer cells or 3,000 fibroblast cells for example were seeded per well onto 96-well plates in 100 μl of the appropriate culture medium. 24 hr after sowing the cells, the media was removed and the cells were treated by adding 100 μl of the compound media solutions at the appropriate concentrations. cis-[Pt(NH3)2(malSAHA−2H)], cisplatin and cis-[Pt(NH3)2(mal)] were prepared freshly in cell culture media. […] The maximum percentage of dmso present in any well was less than 0.1% (v/v). cis-[Pt(NH3)2(malBel—2H)], belinostat and malbelinostat were freshly prepared in dimethyl formamide (DMF) and diluted in culture media prior to the MTS assay. The maximum percentage of DMF present in any well was 0.5% (v/v). A range of concentrations between 1 μM and 100 μM was used.
(§3) After 72 hr of treatment, 20 μl of the MTS reagent was added to each well and the plates incubated for 2 hr at 37° C. […] The percentages of surviving cells relative to untreated controls were determined.

[2] = test system: ovarian cancer cell line A2780 P; experiment: MTS in vitro cytotoxicity, A2780 P; type: cell-based, human
Description: (§4) Cells were cultured in the appropriate media. […] In order to retain resistance 1 μM cisplatin was added to the media of the A2780 cisR cells every third passage. A2780 cisR cells are resistant to cisplatin through a combination of decreased uptake, enhanced DNA repair/tolerance, and elevated reduced glutathione levels
as §1, §2, §3

[3] = test system: cisplatin resistant ovarian cancer cell line A2780 cisR; experiment: MTS in vitro cytotoxicity, A2780 cisR; type: cell-based, human
Description: as §4, §1, §2, §3

[4] = test system: lung cancer cell line (A549); experiment: MTS in vitro cytotoxicity, A549; type: cell-based; details: 72 hours, Table 1, read-out: IC50 values against A549
Description: as §1, §2, §3

[5] = test system: breast cancer cell line (SKBR); experiment: MTS in vitro cytotoxicity, SKBR; type: cell-based; details: 72 hours, Table 1, read-out: IC50 values against SKBR
Description: as §1, §2, §3

[6] = test system: colon cancer cell line (SW480); experiment: MTS in vitro cytotoxicity, SW480; type: cell-based; details: 72 hours, Table 1, read-out: IC50 values against SW480
Description: as §1, §2, §3

[7] = test system: cell line (CH1); experiment: MTS in vitro cytotoxicity, CH1; type: cell-based; details: 72 hours, Table 1, read-out: IC50 values against CH1
Description: as §1, §2, §3

[8] = test system: liver cell lines (Hep-G2); experiment: MTS in vitro cytotoxicity, Hep-G2; type: cell-based; details: 72 hours, Table 1, read-out: IC50 values against Hep-G2
Description: as §1, §2, §3

[9] = test system: DNA in SW480 cells (colon cancer); experiment: Pt binding to DNA in cultured cells (ICP-MS), SW480; type: cell-based; details: 43 μM of Pt complexes, 2 hours of cell treatment
Description: (§5) Pt DNA binding of Pt complexes was measured in SW480 cells (colon cancer) and CH1 cells (lymphoma) or alternatively A2780 P and A2780 cisR cells (sensitive and resistant to cisplatin respectively). The cells were seeded in 60 mm tissue culture dishes with 10 ml of their respective medium. After overnight incubation the medium was removed and replaced with 10 ml of the respective medium containing a platinum complex giving a final concentration of 43 or 40 μM depending on the experiment. The cells were incubated with a given Pt complex for either 2 or 4 h depending on the experiment. The cells were trypsinised and centrifuged. The supernantant was removed and the cells washed twice with 1×PBS and centrifuged. The pellet was re-suspended in DNA buffer to which Proteinase K (20 mg/mL) and 10% SDS were added. After a gentle shake and incubation at 45° C. for two hours, RNAse (100 mg/mL) was added and the cells were incubated at 37° C. overnight. The volume of supernatant was noted and an equal volume of phenol was added.
The resulting mixture was shook for 10 min, then centrifuged for 10 min at 10° C. The supernatant was transferred into a new centrifuge tube (15 ml) and the volume was noted. To this was added an equal volume of phenol and chloroform/isoamylalcohol (24:1). The resulting mixture was shook for 10 min, then centrifuged for 10 min at 10° C. (3000 RPM). The supernatant was transferred into a new centrifuge tube (15 mL) and the volume was noted. To this was added an equal volume of chloroform. The resulting mixture was shook for 10 min, then centrifuged for 10 min at 10° C. The supernatant was transferred into a new centrifuge tube (15 mL) and the volume was noted. To this was added a volume that is 1/10 of the supernatant of 3 M sodium acetate (Ph 5.2) and three times the volume of cold 100% isopropanol (from freezer). The solution was shook gently until the DNA is precipitated. […] The absorbance of the DNA by was measured by UV spectrophotometry at 260 nm and 280 nm and the concentration of DNA calculated. Platinum bound to DNA was determined by ICP-MS.

[10] = test system: DNA in CH1 cells (lymphoma); experiment: Pt binding to DNA in cultured cells (ICP-MS), CH1; type: cell-based; details: 43 μM of Pt complexes, 2 hours of cell treatment
Description: as §5
The resulting mixture was shook for 10 min, then centrifuged for 10 min at 10° C. The supernatant was transferred into a new centrifuge tube (15 ml) and the volume was noted. […] The absorbance of the DNA by was measured by UV spectrophotometry at 260 nm and 280 nm and the concentration of DNA calculated. Platinum bound to DNA was determined by ICP-MS.

[11] = test system: SKBR (breast cancer cells); experiment: Cellular uptake of Pt (FAAS), SKBR; type: cell-based; details: 10 μM, 72 hours treatment
Description: (§6) Cellular uptake of Pt compounds was measured in SKBR, SW480, A549, A2780P and CH1 cells. The cells were seeded in 60 mm tissue culture dishes with 10 mL of their respective medium and after overnight incubation, the cells were treated with the Pt complexes for 72 h at 10 μM concentration. The cell monolayers at the end of the incubation with the Pt complexes were washed (twice) with ice-cold phosphate buffered saline (PBS), trypsinized and harvested into cold (4° C.) PBS. Cell suspensions were centrifuged and the pellets were stored in PBS at −80° C. until assayed. Afterward, the pellets were digested by high pressure microwave mineralization and Pt content was determined by flameless atomic absorption spectrophotometry (FAAS). The results of cellular Pt uptake were corrected for adsorption effects. All experiments were made in triplicate.^17

[12] = test system: SW480 (colon cancer cells); experiment: Cellular uptake of Pt (FAAS), SW480; type: cell-based; details: 10 μM, 72 hours treatment
Description: as §6

[13] = test system: A549 (lung cancer cells); experiment: Cellular uptake of Pt (FAAS), A549; type: cell-based; details: 10 μM, 72 hours treatment
Description: as §6

[14] = test system: A2780 P (ovarian cancer cells); experiment: Cellular uptake of Pt (FAAS), A2780 P; type: cell-based, human; details: 10 μM, 72 hours treatment
Description: as §6, with “The cells were seeded in 60 mm tissue culture dishes with 10 mL of their respective medium and after overnight incubation, the cells were treated with the Pt complexes for 72 h at 10 μM concentration.” left out

[15] = test system: CH1 (cancer cells); experiment: Cellular uptake of Pt (FAAS), CH1; type: cell-based; details: 10 μM, 72 hours treatment
Description: as §6

[16] = target: T1, HDAC1 (Homo sapiens, UniProt Q13547); experiment: Cayman HDAC1 Inhibitor Screening Assay Kit (fluorescence); type: biochemical
T1 construct: purchased Cayman Chemicals, Ann Arbor, USA
T1 sequence (Q13547 whole entry): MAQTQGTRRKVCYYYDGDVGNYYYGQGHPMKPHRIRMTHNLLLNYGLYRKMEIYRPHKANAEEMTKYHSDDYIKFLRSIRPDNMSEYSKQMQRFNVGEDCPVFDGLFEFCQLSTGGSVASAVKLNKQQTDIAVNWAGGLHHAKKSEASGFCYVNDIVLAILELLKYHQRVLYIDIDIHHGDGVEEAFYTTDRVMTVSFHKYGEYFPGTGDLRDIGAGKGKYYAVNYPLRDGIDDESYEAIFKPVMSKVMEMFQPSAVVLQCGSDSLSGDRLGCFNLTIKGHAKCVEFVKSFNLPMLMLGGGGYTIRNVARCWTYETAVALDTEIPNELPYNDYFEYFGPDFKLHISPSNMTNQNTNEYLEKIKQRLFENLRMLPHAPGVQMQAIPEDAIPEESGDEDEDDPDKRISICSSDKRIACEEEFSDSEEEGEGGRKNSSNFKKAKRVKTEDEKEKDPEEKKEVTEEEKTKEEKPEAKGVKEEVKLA
Description: The assay provides a fast two-step fluorescence-based method for measuring HDAC activity. Briefly, in the first step an acetylated lysine residue was incubated with HDAC1 and potential inhibitors. Deacetylation sensitises the substrate so that treatment with the HDAC developer in the second step releases a fluorescent product. The fluorescent reaction product was analysed using a plate reader with an excitation wavelengths of 350 nm and emission wavelengths of 460 nm.

Structure (SMILES): [NH2][Pt]1([NH2])[O]C(=O)CC(=O)[O]1 [cis-[Pt(NH3)2(mal)]]
- IC50 ([1]; 72 hours, MTS, Table 1, read-out: IC50 values against NHDF): 48 ± 2.2 µM
- IC50 ([2]; 72 hours, MTS, Table 1, read-out: IC50 values against A2780 P): 16 ± 4.3 µM
- IC50 ([3]; 72 hours, MTS, Table 1, read-out: IC50 values against A2780cisR): 81 ± 5.8 µM
- IC50 [4]: 6.3 µM
- IC50 [5]: 14.6 ± 2.5 µM
- IC50 [6]: 23.2 ± 1.5 µM
- IC50 [7]: 2.5 ± 0.5 µM
- IC50 [8]: 44.5 ± 0.9 µM
- DNA-bound Pt in SW480 [9]: 1.25 · 10^−15 moles of Pt/μg of DNA
- DNA-bound Pt in CH1 [10]: 1.76 · 10^−15 moles of Pt/μg of DNA
- Uptake of Pt complexes into SKBR [11]: 488.15 ± 38.4 pmol Pt/2 × 10^6 cell
- Uptake of Pt complexes into SW480 [12]: 127.35 ± 27.4 pmol Pt/2 × 10^6 cell
- Uptake of Pt complexes into A549 [13]: 357.1 ± 47.1 pmol Pt/2 × 10^6 cell
- Uptake of Pt complexes into A2780 P [14]: 220.95 ± 10.95 pmol Pt/2 × 10^6 cell
- Uptake of Pt complexes into CH1 [15]: 282.6 ± 20.6 pmol Pt/2 × 10^6 cell

Structure (SMILES): O=C(CCCCCCC(=O)Nc1ccc(CC(C(=O)O)C(=O)O)cc1)NO [malSAHA]
- inhibition of HDAC1 (in words) [16]: inhibit HDAC1
- IC50 ([16]; at 200 μM): 0.0595 µM

Structure (SMILES): O=C(/C=C/c1ccc(S(=O)(=O)Nc2ccc(CC(C(=O)O)C(=O)O)cc2)cc1)NO [malBel]
- IC50 ([1]; 72 hours, MTS, Table 5, read-out: IC50 (μM) ± S.E.M. against NHDF): 28.9 µM
- IC50 ([2]; 72 hours, MTS, Table 5, read-out: IC50 (μM) ± S.E.M. against A2780P): 45.8 µM
- IC50 ([3]; 72 hours, MTS, Table 5, read-out: IC50 (μM) ± S.E.M. against A2780CisR): 32.1 µM

Structure (SMILES): O=C(/C=C/c1cccc(S(=O)(=O)Nc2ccccc2)c1)NO [belinostat, reference compound]
- IC50 ([1]; Homo sapiens, NHDF, 72 h, read-out: IC50 (μM) ± S.E.M. against NHDF): 3 ± 0.5 µM
- IC50 ([2]; Homo sapiens, A2780, 72 h, read-out: IC50 (μM) ± S.E.M. against A2780P): < 1 µM
- IC50 ([3]; Homo sapiens, A2780cisR, 72 h, read-out: IC50 (μM) ± S.E.M. against A2780CisR): < 1 µM
